Reference: US20220267310A1, “QUINAZOLINE AND CINNOLINE DERIVATIVES AS DNA-PK INHIBITOR” (MEDSHINE DISCOVERY INC., priority 2019, published 2022)
“And” between values parts separate entries of the source, which are not always exact repeats. Identical values can stand only once.

Tests used:
[1] = biological target: T1, DNA-PK (h) (Homo sapiens, UniProt P78527); assay: DNA-PK kinase inhibitory activity (HTRF, Eurofins); assay type: biochemical; settings: ATP: 10 μM
T1 construct: Eurofins Pharma Discovery Service (contract assay)
Procedure: (§1) This experiment was tested at Eurofins Pharma Discovery Service, Reaction Biology Corp. (RBC)
(§2) […] DNA-PK: Mg/ATP; GST-cMyc-p53; EDTA; Ser15 antibody; ATP: 10 μM; biotinylated phosphatidylinositol-3,4,5-triphosphate; GST label GRP1 PH domain; streptavidin and phycocyanin; europium-labelled monoclonal antibody against GST.
DNA-PK (h) was incubated in a determination buffer containing 50 nM GST-cMyc-p53 and Mg/ATP (density as required). The reaction was initiated by adding a mixture of Mg/ATP. After incubating at room temperature for 30 min, a termination solution containing EDTA was added to terminate the reaction. Finally, a detection buffer (containing labeled anti-GST monoclonal antibody and europium-labeled anti-phosphate Ser15 antibody against phosphorylated p53) was added. Then, the board was read in time-resolved fluorescence mode, and a Homogeneous Time Resolved Fluorescence (HTRF) signal was measured according to the formula HTRF=10000×(Em665 nm/Em620 nm).

[2] = biological target: T2, PI3K (p110α/p85α) (Homo sapiens, UniProt P42336); assay: PI3K (p110α/p85α) kinase inhibitory activity (HTRF); assay type: biochemical
T2 construct: Eurofins Pharma Discovery Service (contract assay)
T2 sequence (P42336 whole entry, species assumed): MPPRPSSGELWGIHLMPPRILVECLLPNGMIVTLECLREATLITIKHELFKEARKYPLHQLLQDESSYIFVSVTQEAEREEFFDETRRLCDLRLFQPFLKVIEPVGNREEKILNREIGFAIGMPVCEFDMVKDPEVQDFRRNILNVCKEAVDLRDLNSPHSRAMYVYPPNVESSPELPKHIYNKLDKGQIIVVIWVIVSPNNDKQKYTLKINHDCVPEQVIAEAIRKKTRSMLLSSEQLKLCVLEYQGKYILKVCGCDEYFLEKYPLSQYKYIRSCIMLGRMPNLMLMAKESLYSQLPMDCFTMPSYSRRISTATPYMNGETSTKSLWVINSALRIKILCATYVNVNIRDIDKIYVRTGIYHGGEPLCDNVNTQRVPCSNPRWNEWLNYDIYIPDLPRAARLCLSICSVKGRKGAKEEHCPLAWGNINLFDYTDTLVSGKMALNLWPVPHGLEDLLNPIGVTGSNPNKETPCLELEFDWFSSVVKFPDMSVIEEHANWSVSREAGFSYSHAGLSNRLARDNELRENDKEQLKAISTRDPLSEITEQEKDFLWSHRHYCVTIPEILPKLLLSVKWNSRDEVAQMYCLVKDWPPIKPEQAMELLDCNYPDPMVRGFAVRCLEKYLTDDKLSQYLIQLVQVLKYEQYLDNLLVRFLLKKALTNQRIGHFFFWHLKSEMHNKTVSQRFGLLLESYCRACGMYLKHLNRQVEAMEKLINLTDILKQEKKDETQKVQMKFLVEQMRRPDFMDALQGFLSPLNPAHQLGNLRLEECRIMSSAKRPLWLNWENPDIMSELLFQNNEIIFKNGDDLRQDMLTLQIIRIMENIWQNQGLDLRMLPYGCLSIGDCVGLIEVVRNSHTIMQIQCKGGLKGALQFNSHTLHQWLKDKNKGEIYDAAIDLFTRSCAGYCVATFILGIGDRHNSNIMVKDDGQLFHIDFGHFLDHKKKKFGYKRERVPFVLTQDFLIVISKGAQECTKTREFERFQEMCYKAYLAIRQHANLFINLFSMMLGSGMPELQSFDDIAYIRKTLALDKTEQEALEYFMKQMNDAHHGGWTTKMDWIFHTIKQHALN
T2 sequence (P27986 whole entry partner, species assumed): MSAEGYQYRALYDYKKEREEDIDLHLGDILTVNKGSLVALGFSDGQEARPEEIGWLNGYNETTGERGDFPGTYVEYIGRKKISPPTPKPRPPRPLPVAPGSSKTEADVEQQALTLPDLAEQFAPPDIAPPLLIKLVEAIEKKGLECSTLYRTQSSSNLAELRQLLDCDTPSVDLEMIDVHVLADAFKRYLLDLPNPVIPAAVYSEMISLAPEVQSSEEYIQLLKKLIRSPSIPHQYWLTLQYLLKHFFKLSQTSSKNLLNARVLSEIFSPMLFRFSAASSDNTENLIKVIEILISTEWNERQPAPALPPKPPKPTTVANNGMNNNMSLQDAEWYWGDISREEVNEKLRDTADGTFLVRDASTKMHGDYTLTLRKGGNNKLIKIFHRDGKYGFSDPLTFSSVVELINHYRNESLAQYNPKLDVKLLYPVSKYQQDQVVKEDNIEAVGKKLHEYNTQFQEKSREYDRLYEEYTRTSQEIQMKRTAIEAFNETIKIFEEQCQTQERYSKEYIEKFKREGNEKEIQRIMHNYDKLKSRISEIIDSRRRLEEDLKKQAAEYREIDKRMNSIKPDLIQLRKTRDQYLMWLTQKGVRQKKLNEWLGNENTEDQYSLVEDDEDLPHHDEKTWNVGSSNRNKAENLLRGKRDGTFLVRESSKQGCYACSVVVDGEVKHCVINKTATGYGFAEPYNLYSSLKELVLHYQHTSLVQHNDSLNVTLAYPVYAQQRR
Procedure: as §1, §2
PI3K (p110α/p85α) was incubated in a determination buffer containing phosphatidylinositol 4,5-diphosphate and Mg/ATP (density as required). The reaction was initiated by adding an ATP solution. After incubating at room temperature for 30 min, a termination solution containing EDTA and biotinylated phosphatidylinositol-3,4,5-triphosphate was added to terminate the reaction. Finally, a detection buffer (containing labeled anti-GST monoclonal antibody, PH domain of GRP1 with GST label and streptavidin and phycyanin and […]) was added. Then, the board was read in time-resolved fluorescence mode, and an HTRF signal was measured according to the formula HTRF=10000×(Em665 nm/Em620 nm).

[3] = biological target: T3, PI3K (p110σ/p85α) (Homo sapiens, UniProt O00329); assay: PI3K (p110σ/p85α) kinase inhibitory activity (HTRF); assay type: biochemical
T3 construct: Eurofins Pharma Discovery Service (contract assay)
T3 sequence (O00329 whole entry): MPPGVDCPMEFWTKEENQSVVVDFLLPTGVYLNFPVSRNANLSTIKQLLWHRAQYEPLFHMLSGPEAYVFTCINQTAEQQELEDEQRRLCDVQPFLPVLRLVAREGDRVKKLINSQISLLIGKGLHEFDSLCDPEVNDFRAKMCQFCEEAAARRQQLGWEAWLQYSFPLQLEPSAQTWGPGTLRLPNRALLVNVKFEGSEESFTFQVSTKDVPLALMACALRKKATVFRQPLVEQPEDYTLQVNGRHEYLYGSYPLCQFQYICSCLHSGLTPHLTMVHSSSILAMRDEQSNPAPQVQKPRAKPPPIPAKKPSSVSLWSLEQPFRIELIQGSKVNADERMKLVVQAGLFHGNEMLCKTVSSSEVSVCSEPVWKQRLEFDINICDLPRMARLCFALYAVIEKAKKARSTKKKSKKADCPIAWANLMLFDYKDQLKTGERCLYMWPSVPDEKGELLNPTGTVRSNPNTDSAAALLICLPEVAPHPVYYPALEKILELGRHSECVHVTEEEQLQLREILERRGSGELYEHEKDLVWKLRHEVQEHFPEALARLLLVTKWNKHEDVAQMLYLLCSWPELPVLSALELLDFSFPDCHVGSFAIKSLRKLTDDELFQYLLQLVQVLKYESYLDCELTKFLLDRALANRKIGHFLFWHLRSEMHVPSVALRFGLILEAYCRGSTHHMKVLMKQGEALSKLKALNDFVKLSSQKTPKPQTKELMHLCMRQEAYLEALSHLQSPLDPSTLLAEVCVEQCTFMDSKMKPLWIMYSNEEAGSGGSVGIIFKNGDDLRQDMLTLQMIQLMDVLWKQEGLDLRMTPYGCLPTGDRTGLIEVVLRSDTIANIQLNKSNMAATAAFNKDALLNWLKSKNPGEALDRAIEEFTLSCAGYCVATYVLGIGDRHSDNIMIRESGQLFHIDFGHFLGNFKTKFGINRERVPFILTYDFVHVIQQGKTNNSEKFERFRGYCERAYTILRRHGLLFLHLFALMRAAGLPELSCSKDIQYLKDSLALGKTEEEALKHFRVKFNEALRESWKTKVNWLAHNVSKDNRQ
T3 sequence (P27986 whole entry partner): as the sequence (P27986 whole entry partner, species assumed) above

[4] = Pharmacokinetic evaluation in mice, IV and PO; assay type: in vivo, Balb/c female mice
Procedure: The tested compound was mixed with 10% DMSO/50% PEG400/40% water, vortexized and ultrasonic to prepare 0.2 mg/mL or 0.4 mg/ml, approximately clarified solution, which was filtered by a microporous membrane and then standby. Balb/c female mice of 18-20 g were selected and given the candidate compound solution intravenously at a dose of 1 or 2 mg/kg. The tested compound was mixed with 10% DMSO/50% PEG400/40% water, vortexized and ultrasonic to prepare 0.2 mg/mL or 1 mg/mL approximately clarified solution, which was filtered by a microporous membrane and then standby. Balb/c female mice of 18 to 20 g were selected and given orally the candidate compound solution at a dose of 2 or 10 mg/kg. Whole blood was collected for a certain period of time, and plasma was prepared. Drug concentration was analyzed by LC-MS/MS method, and pharmacokinetic parameters were calculated by Phoenix WinNonlin software (US Pharsight company).
C0: instantaneous concentration required after intravenous injection; Cmax: the highest blood concentration after administration; Tmax: time required to reach peak concentration after administration; T1/2: the time required for blood drug concentration to decrease by half; Vdss: apparent volume of distribution, which refers to the ratio constant of drug dosage to blood concentration when a drug reaches dynamic equilibrium in vivo. Cl: clearance rate, referring to drug apparent distribution volume number removed from the body per unit time; Tlast: time of last detection point: AUC0-last: an area under a drug duration curve, referring to an area surrounded by the blood drug concentration curve on the time axis; Bioavailability: a measure of the rate and extent of drug absorption into the blood circulation, which was an important index to evaluate drug absorption degree.

[5] = test system: human small cell lung cancer NCI-H69 cell subcutaneous xenograft tumor; assay: NCI-H69 subcutaneous xenograft, combination with etoposide, 22-day experiment (Table 7); assay type: in vivo, BALB/c nude mice
Procedure: Experiment example 3: in vivo pharmacodynamics of human small cell lung cancer NCI-H69 cell subcutaneous xenograft tumor BALB/c nude mouse model:
Experimental animals: Female BALB/c nude mice, 6-8 weeks old, weighing 15-22 grams; supplier: Shanghai Linchang Biotechnology Co., LTD. (Linchang, Shanghai)
Human small cell lung cancer NCI-H69 cells (ATCC, item number: HTB-119 and ECACC-95111733) were cultured in vitro in a culture condition of RPMI-1640 medium with 10% fetal bovine serum, 100 U/mL penicillin and 100 μg/mL streptomycin, incubated at 37° C. and 5% CO2. Conventional passage was carried out twice a week. When cell saturation was 80%-90% and the number reaches the requirement, cells were collected, counted and inoculated.
0.2 mL (10×10^6) NCI-H69 cells (with matrix glue, and volume ratio of 1:1) were subcutaneously inoculated into a right back of each mouse, and group administration was initiated when the average tumor volume reaches about 110-120 mm^3.
The tested compound was prepared as a 5 mg/mL clarified solution with 10% DMSO+50% polyethylene glycol 400+40% water as the solvent.
The experimental indicators refers to study whether tumor growth was inhibited, delayed, or cured. Tumor diameter was measured twice a week with a vernier caliper. The calculation formula of the tumor volume was V=0.5a×b^2, and a and b represent the long diameter and short diameter of the tumor, respectively.
The antitumor efficacy of the compound was evaluated by TGI (%) or relative tumor proliferation rate T/C (%). TGI (%) reflects the tumor growth inhibition rate. The calculation of TGI (%): TGI (%)=[1−(average tumor volume at the end of administration of a certain treatment group−average tumor volume at the beginning of administration of the treatment group)/(average tumor volume at the end of treatment in solvent control group−average tumor volume at the beginning of treatment in solvent control group)]×control group.
Relative tumor proliferation rate T/C (%): the calculation formula was as follows: T/C %=[…] TRTV/CRTV group (TRTV: treatment group RTV; CRTV: negative control group RTV). According to results of tumor measurement, Relative Tumor Volume (RTV) was calculated by the formula RTV=Vt/V0, where V0 was the average tumor volume measured in group administration (i.e., d0), and Vt was the average tumor volume measured in a certain single measurement. TRTV and CRTV collect data on the same day.
Statistic analysis includes an average value and a standard error (SEM) of tumor volume at each time point for each group. […] If there was no significant difference in F value, Dunnet (2-sided) method was applied to analysis. All data were analyzed using SPSS 17.0. P<0.05 was considered as having a significant difference.

[6] = 40 mg/kg, PO, QD + etoposide 10 mg/kg, IP, 3-day administration, 4-day withdrawal, 22nd day
[7] = 40 mg/kg, PO, QD + etoposide 10 mg/kg, IP, 3-day administration, 4-day withdrawal, average ± SEM

- IC50 [1]: 0.5 nM
- IC50 [2]: 39 nM
- IC50 [3]: 13 nM
- AUC0-last ([4]; IV(2 mg/kg), mouse plasma): 3.354 µM·h
- C0 ([4]; IV(2 mg/kg), mouse plasma): 1810 nM
- Cl ([4]; IV(2 mg/kg), mouse plasma): 20.3 mL/min/kg
- T1/2 ([4]; IV(2 mg/kg), mouse plasma): 1.33 h
- Tlast ([4]; IV(2 mg/kg), mouse plasma): 8.00 h
- Vdss ([4]; IV(2 mg/kg), mouse plasma): 2.25 L/kg
- Bioavailability (%) ([4]; PO(10 mg/kg), mouse): 60.8%
- AUC0-last ([4]; PO(10 mg/kg), mouse plasma): 9.073 µM·h
- Cmax ([4]; PO(10 mg/kg), mouse plasma): 2520 nM
- T1/2 ([4]; PO(10 mg/kg), mouse plasma): 2.47 h
- Tlast ([4]; PO(10 mg/kg), mouse plasma): 8.00 h
- Tmax ([4]; PO(10 mg/kg), mouse plasma): 1.00 h
- Weight changes ([5]; 40 mg/kg group (+ etoposide 10 mg/kg, IP)): −16.66%
SMILES: COc1ccc(C(O)c2cc(-c3ccnc4cc(N5CCOCC5)ccc34)c(F)cc2Cl)nn1 (single isomer, unassigned) [Embodiment 2]
- RTV (22th day) ([5]; 40 mg/kg, PO, QD + etoposide 10 mg/kg, IP, 3-day administration, 4-day withdrawal): 1.84
- T/C (%) [5, 6]: 21.37%
- TGI (%) [5, 6]: 89% and 88.96%
- Tumor volume (mm^3) (0th day) [5, 7]: 119 ± 13 mm^3
- Tumor volume (mm^3) (22th day) [5, 7]: 219 ± 44 mm^3
